Assay results taken from paper PMC9501525, “Conjugation of a Cationic Cell-Penetrating Peptide with a Novel Kunitzin-like Trypsin Inhibitor: New Insights for Enhancement of Peptide Bioactivities” (Pharmaceutics, 2022).
Peptide text beside a SMILES is read from it.

Legend:
trypsin = target: T1, trypsin (Bos taurus, UniProt P00760); assay: Trypsin inhibition determination (fluorogenic substrate, Morrison Ki); type: biochemical; conditions: Morrison equation; substrate Phe-Pro-Arg-AMC in PBS; Km = 67.38 μM, [S] = 42.86 μM, Et = 0.0020 μM; peptide 0.1–100 µM; nine replications in three experiments; N.I. = no inhibitory effect
T1 construct: gene PRSS1
T1 sequence (P00760 24-246): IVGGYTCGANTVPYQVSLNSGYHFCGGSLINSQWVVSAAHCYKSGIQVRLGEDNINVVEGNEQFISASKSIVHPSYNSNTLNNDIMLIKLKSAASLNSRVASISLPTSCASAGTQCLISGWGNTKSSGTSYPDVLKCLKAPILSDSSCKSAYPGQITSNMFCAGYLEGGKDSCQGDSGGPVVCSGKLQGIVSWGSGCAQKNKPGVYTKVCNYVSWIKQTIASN
Method: Phe-Pro-Arg-AMC (Bachem, Merseyside, UK) and succinyl-Ala-Ala-Pro-Phe-AMC (Bachem, Merseyside, UK) were used as substrates for trypsin and chymotrypsin inhibition determinations, respectively. Serial peptide dilutions (0.1–100 µM in phosphate buffered saline (PBS)) were incubated with 180 µL of substrate solution (50 µM in PBS) in a black 96-well plate under dark conditions for 10 min. Immediately prior to measurement, 10 µL of trypsin/chymotrypsin working solution (0.1 µM in PBS) was added to each well (final volume of 210 µL) in the plate. Subsequently, the fluorescence intensity was measured with the FLUO star OPTIMA plate reader (BMG Labtech, Ortenberg, Germany). The whole measurement process lasted for 30 min and was carried out at an emission wavelength of 460 nm and an excitation wavelength of 395 nm. The inhibition curves of trypsin and chymotrypsin were analyzed by non-linear regression using the Morrison equation in Prism 9 (Trypsin Km = 67.38 μM; Chymotrypsin Km = 17.15 μM; [S] = 42.86 μM; Et = 0.0020 μM).

MRSA (NCTC 12493) = type: cell-based, methicillin-resistant Staphylococcus aureus; conditions: for MIC: MHB, 5 × 10^5 CFU/mL, overnight; for MBC: clear wells spotted onto MHA
Method: The antimicrobial efficacy screening of the purified peptides was performed by MIC/MBC experiments on the following six different bacteria and an opportunistic pathogenic yeast: E. coli (ATCC 8739), Klebsiella pneumoniae (K. pneumoniae) (ATCC 43816), Pseudomonas aeruginosa (P. aeruginosa) (ATCC 9027), Staphylococcus aureus (S. aureus) (ATCC 6538), methicillin-resistant Staphylococcus aureus (MRSA) (NCTC 12493), Enterococcus faecium (E. faecium) (NCTC 12697), and Candida albicans (C. albicans) (ATCC 10231). First, frozen beads of respective cultures were inoculated into Mueller Hinton broth (MHB) medium and incubated overnight at 37 °C. Next, 500 µL of respective suspensions were added to the fresh MHB medium for incubation, and then sub-cultured until reaching the log growth phase, which was determined by measuring the absorbance of cultures at a wavelength of 550 nm. Then, the subcultures were diluted to 5 × 10^5 CFU/mL and 99 µL of suspension was removed and mixed with 1 µL of peptide solution at different concentrations (double-dilution of 12,800 to 100 µM) in a 96-well plate. The blank control, vehicle control, growth control, and the positive control groups were prepared according to the conditions mentioned previously. The peptide solutions were added to the plate and mixed with the diluted microbial suspensions. After overnight incubation, the absorbance at 550 nm of each well was measured with a Synergy HT plate reader (Biotech, Minneapolis, MN, USA). Subsequently, the samples in each clear well were spotted onto Mueller Hinton agar (MHA) plates for the MBC assays of the tested peptides.

E. coli = assay: Salt sensitivity assay (MIC in the presence of salts); type: cell-based, Escherichia coli; conditions: for MIC in the presence of NH4Cl: MHB + 6 μM NH4Cl; for MIC in the presence of NH4Cl / MIC in the presence of KCl / MIC in the presence of NaCl / MIC in the presence of PBS: 18–20 h; for MIC in the presence of MgCl2: MHB + 1 mM MgCl2, 18–20 h; for MIC in the presence of CaCl2: MHB + 2.5 mM CaCl2, 18–20 h; for MIC in the presence of FeCl3: MHB + 4 mM FeCl3, 18–20 h; for MIC in the presence of KCl: MHB + 4.5 mM KCl; for MIC in the presence of ZnCl2: MHB + 8 mM ZnCl2, 18–20 h; for MIC in the presence of NaCl: MHB + 150 mM NaCl; for MIC in the presence of PBS: MHB, PBS (no added salt), 37 °C
Method: To determine the salt sensitivity of peptides, E. coli was used to detect the changes in MIC values of peptides under different salt conditions. The bacterial culture method used was similar to the MIC experimental method described earlier. Different concentrations of salts (150 mM NaCl, 4.5 mM KCl, 6 μM NH4Cl, 1 mM MgCl2, 1 mM MgCl2, 8 mM ZnCl2, 2.5 mM CaCl2, 4 mM FeCl3) were added to the MHB to examine the effects of each salt on the anti-E. coli activities of the peptides, as described in a previous study. Then, the bacterial dilution with salt was mixed well with peptides of different concentrations, similar to the MIC/MBC experiments, and cultured at 37 °C. After 18–20 h of incubation, the absorbance of each well was measured at 550 nm using the Synergy HT plate reader.

[1] = tested on: MRC-5 human pulmonary fibroblast cells; assay: MTT cell antiproliferation assay; type: cell-based; conditions: MRC-5 normal cells, 24 h of treatment, 10^−9–10^−4 M
Method: The antiproliferative activities of the synthesized peptides were assessed on six human cancer cell lines (PC-3, H157, H460, H838, MCF-7, U251MG) and two human normal cell lines (HMEC-1 and MRC-5) using the MTT cell viability assay. Human lung cancer cells (H838, H157, and H460) and human prostate cancer cells (PC-3) were cultured in complete growth medium (CGM) (Roswell Park Memorial Institute (RPMI) 1640 Medium (Gibco, Paisley, UK): Fetal bovine serum (FBS) (Gibco, Campinas, Brazil): Penicillin-streptomycin solution (PS) (Gibco, Grand Island, NY, USA) 89/10/1 v/v/v). Human glioblastoma astrocytoma (U251MG) and human breast cancer cell (MCF-7) were cultured in complete growth medium (Dulbecco’s Modified Eagle medium (DMEM) (Gibco, Paisley, UK): FBS: PS 89/10/1 v/v/v). Human microvascular endothelial cells (HMEC-1) and human pulmonary fibroblast cells (MRC-5) were cultured in MCDB131 medium (supplemented with 10% FBS, 1% PS, 10 ng/mL epidermal growth factor, 1 µg/mL hydrocortisone, and 10 mM glutamine) and Eagle’s Minimal Essential Medium (EMEM) (supplemented with 10% FBS and 1% PS), respectively. Cell suspension, containing 8 × 10^3 cells per 100 µL, was first added to 96-well plates for overnight incubation. Then, the adherent cells in the 96-well plates were subject to cell starvation using the serum free medium treatment for at least 4 h to ensure that the cells were all in the same growth cycle. The peptide solutions, with final concentrations of 10^−9–10^−4 M, were prepared with serum free medium and added onto the plate. In addition, Triton X-100 (0.1%) (Sigma-Aldrich, St. Louis, MO, USA) was used as a positive control. After 24 h of administration, the MTT solution was added to the plate and incubated for 2 h. Then, the supernatant was discarded and DMSO was added to dissolve the purple formazan crystals. The absorbance was measured in all wells using the Synergy HT plate reader at a wavelength of 570 nm.

Structure (SMILES) | Trypsin Ki (trypsin) | MIC (MRSA (NCTC 12493)) [µM] | MBC (MRSA (NCTC 12493)) [µM] | MIC in the presence of NH4Cl (E. coli) [µM] | MIC in the presence of MgCl2 (E. coli) [µM] | MIC in the presence of CaCl2 (E. coli) [µM] | MIC in the presence of FeCl3 (E. coli) [µM] | MIC in the presence of KCl (E. coli) [µM] | MIC in the presence of ZnCl2 (E. coli) [µM] | MIC in the presence of NaCl (E. coli) [µM] | MIC in the presence of PBS (E. coli) [µM] | Ki (trypsin) [µM] | IC50 [1] [µM]
CC(C)C[C@H](NC(=O)[C@H](CCCCN)NC(=O)[C@H](C)NC(=O)[C@H](C)N)C(=O)N1CCC[C@H]1C(=O)N[C@@H](Cc1ccccc1)C(=O)N[C@@H](CCCNC(=N)N)C(=O)N[C@H]1CSSC[C@@H](C(=O)O)NC(=O)[C@H](Cc2ccccc2)NC(=O)[C@H](C)NC(=O)[C@H](C)NC(=O)[C@H](Cc2ccccc2)NC1=O [F9-KOV2] (HELM PEPTIDE1{A.A.K.L.P.F.R.C.F.A.A.F.C}$PEPTIDE1,PEPTIDE1,8:R3-13:R3$$$V2.0) | N.I. | >128 | >128 | >128 | >128 | >128 | >128 | >128 | >128 | >128 | >128 |  | 
CC(C)C[C@H](NC(=O)[C@H](CCCCN)NC(=O)[C@H](C)NC(=O)[C@H](C)N)C(=O)N1CCC[C@H]1C(=O)N[C@@H](Cc1ccccc1)C(=O)N[C@@H](CCCNC(=N)N)C(=O)N[C@H]1CSSC[C@@H](C(=O)O)NC(=O)[C@H](Cc2ccccc2)NC(=O)[C@H](C)NC(=O)[C@H](C)NC(=O)[C@H](CCCCN)NC1=O [Kunitzin-OV2] (HELM PEPTIDE1{A.A.K.L.P.F.R.C.K.A.A.F.C}$PEPTIDE1,PEPTIDE1,8:R3-13:R3$$$V2.0) |  | >128 | >128 | >128 | >128 | >128 | >128 | >128 | >128 | >128 | 128 | 9.82 | 
CC(C)C[C@H](NC(=O)[C@H](CCCCN)NC(=O)[C@H](C)NC(=O)[C@H](C)NC(=O)CNC(=O)CNC(=O)[C@H](CCCNC(=N)N)NC(=O)[C@H](CCCNC(=N)N)NC(=O)[C@H](CCCNC(=N)N)NC(=O)[C@H](CCC(N)=O)NC(=O)[C@H](CCCNC(=N)N)NC(=O)[C@H](CCCNC(=N)N)NC(=O)[C@H](CCCCN)NC(=O)[C@H](CCCCN)NC(=O)[C@@H](N)CCCNC(=N)N)C(=O)N1CCC[C@H]1C(=O)N[C@@H](Cc1ccccc1)C(=O)N[C@@H](CCCNC(=N)N)C(=O)N[C@H]1CSSC[C@@H](C(=O)O)NC(=O)[C@H](Cc2ccccc2)NC(=O)[C@H](C)NC(=O)[C@H](C)NC(=O)[C@H](Cc2ccccc2)NC1=O [TAT-F9-KOV2] (HELM PEPTIDE1{R.K.K.R.R.Q.R.R.R.G.G.A.A.K.L.P.F.R.C.F.A.A.F.C}$PEPTIDE1,PEPTIDE1,19:R3-24:R3$$$V2.0) | N.I. | >128 | >128 | 8 | 16 | 32 | 8 | 8 | 8 | 8 | 8 |  | 43.6
CC(C)C[C@H](NC(=O)[C@H](CCCCN)NC(=O)[C@H](C)NC(=O)[C@H](C)NC(=O)CNC(=O)CNC(=O)[C@H](CCCNC(=N)N)NC(=O)[C@H](CCCNC(=N)N)NC(=O)[C@H](CCCNC(=N)N)NC(=O)[C@H](CCC(N)=O)NC(=O)[C@H](CCCNC(=N)N)NC(=O)[C@H](CCCNC(=N)N)NC(=O)[C@H](CCCCN)NC(=O)[C@H](CCCCN)NC(=O)[C@@H](N)CCCNC(=N)N)C(=O)N1CCC[C@H]1C(=O)N[C@@H](Cc1ccccc1)C(=O)N[C@@H](CCCNC(=N)N)C(=O)N[C@H]1CSSC[C@@H](C(=O)O)NC(=O)[C@H](Cc2ccccc2)NC(=O)[C@H](C)NC(=O)[C@H](C)NC(=O)[C@H](CCCCN)NC1=O [TAT-KOV2] (HELM PEPTIDE1{R.K.K.R.R.Q.R.R.R.G.G.A.A.K.L.P.F.R.C.K.A.A.F.C}$PEPTIDE1,PEPTIDE1,19:R3-24:R3$$$V2.0) |  | >128 | >128 | 4 | 8 | 16 | 4 | 4 | 4 | 4 | 4 | 10.1 | 64.9
